# According to US7459481B2, “Stimulation of CPT-1 as a means to reduce weight” (The Johns Hopkins University School of Medicine Licensing …, priority 2002, dated 2008):
# Assays:
# [1] = tested on: MCF-7 cells; assay: Fatty acid oxidation ([1-14C]palmitate to 14CO2) in MCF-7 cells; format: cell-based, human
# Protocol: (§1) Human breast cancer cell line MCF-7 was obtained from the American Type Culture Collection. 1×10^6 MCF-7 cells were plated in T-25 flasks in triplicate and incubated overnight at 37° C. Drugs were then added as indicated diluted from 5 mg/ml stock in DMSO. After 2 hours, medium with drugs was removed and cells were preincubated for 30 min. with 1.5 ml of the following buffer: 114 mM NaCl, 4.7 mM KCl, 1.2 mM KH2PO4, 1.2 mM MgSO4, glucose 11 mM. After preincubation, 200 μl of assay buffer was added containing: 114 mM NaCl, 4.7 mM KCl, 1.2 mM KH2PO4, 1.2 mM MgSO4, glucose 11 mM, 2.5 mM palmitate (containing with 10 μCi of [1-^14C]palmitate) bound to albumin, 0.8 mM L-carnitine, and cells were incubated at 37° C. for 2 h. Following the incubation, 400 μl of benzethonium hydrochloride was added to the center well to collect released ^14CO2. Immediately, the reaction was stopped by adding 500 μl of 7% perchloric acid to the cells. The flasks with wells were then incubated for 2 h at 37° C. after which the benzothonium hydrochloride was removed and counted for ^14C. Blanks were prepared by adding 500 μl of 7% perchloric acid to the cells prior to the incubation with the assay buffer for 2 h.
# (§2) FAS activity was measured by monitoring the malonyl-CoA dependent oxidation of NADPH spectrophotometrically at OD340 in 96-well plates, as described in International Patent Publication WO 2004/005277. The IC50 for the compounds against FAS was determined by plotting the change in OD340 against time for each inhibitor concentration tested and determining the rate of change by linear regression. The concentration of a particular compound yielding 50% inhibition of the rate for FAS in the absence of the compound is the IC50. Stimulation of CPT-1 activity was measured as described in Example 2, except the cells were preincubated with the compound for 2 hours at the concentrations indicated in the table. Stimulation of Fatty acid oxidation was determined as described in Example 1 for cells preincubated with the compounds at the concentrations indicated in the table.
# [2] = tested on: CPT-1; assay: CPT-1 activity in differentiated 3T3-L1 adipocytes; format: cell-based, mouse; settings: 2 hours
# Protocol: CPT-1 activity was assayed in MCF-7 cells by the following published procedure: MCF-7 cells were plated in DMEM with 10% fetal bovine serum at 10^6 cells in 24-well plates in triplicate. Following overnight incubation at 37° C., the medium was removed and replaced with 700 μl of assay medium consisting of: 50 mM imidazole, 70 mM KCl, 80 mM sucrose, 1 mM EGTA, 2 mM MgCl2, 1 mM DTT, 1 mM KCN, 1 mM ATP, 0.1% fatty acid free bovine serum albumin, 70 μM palmitoyl-CoA, 0.25 μCi [methyl-^14C]L-carnitine, 40 μg digitonin with or without 20 μM malonyl-CoA. After incubation for 6 minutes at 37° C., the reaction was stopped by the addition of 500 μl of ice-cold 4 M perchloric acid. Cells were then harvested and centrifuged at 13,000×g for 5 min. […] The butanol phase was counted by liquid scintillation and represents the acylcarnitine derivative.
# (§3) To expand the study of effects of C75 on fatty acid metabolism beyond cancer cell lines to normal adipocytes, differentiated (non-transformed) mouse NIH 3T3-L1 adipocytes were used in assays similar to those performed with the MCF-7 cells. […] The differentiated cells were ready to be used for experiments in 7-10 days.
# (§4) C75 increased CPT-1 activity and fatty acid metabolism in the NIH 3T3-L1 cells differentiated into adipocytes. […] CPT-1 activity, fatty acid oxidation, and total cellular ATP were measured as described in Examples 2, 1, and 4. […]
# [3] = biological target: FAS (Homo sapiens, UniProt P49327); assay: FAS activity, malonyl-CoA dependent oxidation of NADPH at OD340; format: biochemical
# FAS, sequence (P49327 whole entry): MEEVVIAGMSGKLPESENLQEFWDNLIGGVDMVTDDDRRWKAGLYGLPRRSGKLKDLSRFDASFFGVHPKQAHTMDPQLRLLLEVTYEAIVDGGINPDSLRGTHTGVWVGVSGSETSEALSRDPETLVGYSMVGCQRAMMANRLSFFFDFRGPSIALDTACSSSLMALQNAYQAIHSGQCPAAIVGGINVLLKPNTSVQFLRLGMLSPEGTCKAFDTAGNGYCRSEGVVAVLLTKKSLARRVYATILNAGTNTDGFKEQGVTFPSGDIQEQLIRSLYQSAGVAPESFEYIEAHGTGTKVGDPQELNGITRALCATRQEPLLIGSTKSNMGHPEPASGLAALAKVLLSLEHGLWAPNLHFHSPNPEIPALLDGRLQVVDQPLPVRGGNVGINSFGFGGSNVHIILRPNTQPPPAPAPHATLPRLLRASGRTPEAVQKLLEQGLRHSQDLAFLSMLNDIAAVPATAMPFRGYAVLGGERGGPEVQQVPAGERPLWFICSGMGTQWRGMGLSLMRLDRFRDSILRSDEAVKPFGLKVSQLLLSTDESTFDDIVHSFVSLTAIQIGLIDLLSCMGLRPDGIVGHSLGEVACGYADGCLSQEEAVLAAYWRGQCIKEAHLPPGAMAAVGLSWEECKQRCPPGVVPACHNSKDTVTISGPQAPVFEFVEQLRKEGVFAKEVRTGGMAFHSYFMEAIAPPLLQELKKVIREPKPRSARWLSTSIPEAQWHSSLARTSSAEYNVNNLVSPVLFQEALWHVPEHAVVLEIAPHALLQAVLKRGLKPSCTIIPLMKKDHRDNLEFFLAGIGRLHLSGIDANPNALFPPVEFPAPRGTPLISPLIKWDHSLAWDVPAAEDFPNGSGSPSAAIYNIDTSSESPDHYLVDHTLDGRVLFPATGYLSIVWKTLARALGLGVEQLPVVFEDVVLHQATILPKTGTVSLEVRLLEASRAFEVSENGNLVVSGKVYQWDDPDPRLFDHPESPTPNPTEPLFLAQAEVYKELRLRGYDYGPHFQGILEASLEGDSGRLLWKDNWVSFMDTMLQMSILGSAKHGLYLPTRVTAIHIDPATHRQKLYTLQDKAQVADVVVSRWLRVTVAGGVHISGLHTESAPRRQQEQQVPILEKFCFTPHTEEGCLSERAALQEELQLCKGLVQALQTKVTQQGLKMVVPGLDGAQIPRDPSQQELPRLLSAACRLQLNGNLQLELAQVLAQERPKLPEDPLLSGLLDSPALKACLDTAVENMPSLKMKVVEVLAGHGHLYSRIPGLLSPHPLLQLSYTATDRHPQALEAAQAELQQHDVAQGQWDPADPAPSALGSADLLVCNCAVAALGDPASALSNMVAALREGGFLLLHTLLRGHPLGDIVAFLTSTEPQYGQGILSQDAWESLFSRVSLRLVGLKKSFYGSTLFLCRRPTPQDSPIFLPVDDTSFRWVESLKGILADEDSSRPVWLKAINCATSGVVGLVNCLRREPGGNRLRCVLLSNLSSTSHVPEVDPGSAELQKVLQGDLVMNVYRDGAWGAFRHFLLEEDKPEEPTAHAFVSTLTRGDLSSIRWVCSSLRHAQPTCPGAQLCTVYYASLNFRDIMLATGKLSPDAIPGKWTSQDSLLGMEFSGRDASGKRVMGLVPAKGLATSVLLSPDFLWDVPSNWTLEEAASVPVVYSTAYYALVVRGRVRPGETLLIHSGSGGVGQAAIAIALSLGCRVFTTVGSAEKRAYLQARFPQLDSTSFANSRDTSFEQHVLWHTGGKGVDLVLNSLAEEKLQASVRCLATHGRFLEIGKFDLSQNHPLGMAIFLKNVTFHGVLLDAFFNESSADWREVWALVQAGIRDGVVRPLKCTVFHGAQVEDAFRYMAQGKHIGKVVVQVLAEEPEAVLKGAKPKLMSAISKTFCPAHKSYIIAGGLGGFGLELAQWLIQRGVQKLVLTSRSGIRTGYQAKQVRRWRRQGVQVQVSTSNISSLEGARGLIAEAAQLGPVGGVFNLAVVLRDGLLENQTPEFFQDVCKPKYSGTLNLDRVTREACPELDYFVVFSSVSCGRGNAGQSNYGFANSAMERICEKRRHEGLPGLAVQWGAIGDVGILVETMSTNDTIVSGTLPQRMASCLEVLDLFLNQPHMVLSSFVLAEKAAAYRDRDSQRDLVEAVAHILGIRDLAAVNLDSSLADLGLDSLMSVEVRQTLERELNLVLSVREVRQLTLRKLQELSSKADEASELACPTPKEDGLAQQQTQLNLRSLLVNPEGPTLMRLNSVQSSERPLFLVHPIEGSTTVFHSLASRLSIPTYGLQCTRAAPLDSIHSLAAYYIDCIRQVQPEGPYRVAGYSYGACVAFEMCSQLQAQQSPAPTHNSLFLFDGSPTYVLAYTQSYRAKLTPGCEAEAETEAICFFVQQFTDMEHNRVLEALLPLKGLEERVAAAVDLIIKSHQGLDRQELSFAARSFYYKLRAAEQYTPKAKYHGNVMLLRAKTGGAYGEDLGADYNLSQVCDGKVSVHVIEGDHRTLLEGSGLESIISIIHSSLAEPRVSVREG
# Protocol: as §2
# [4] = tested on: 3T3-L1 adipocytes; assay: Fatty acid oxidation in differentiated 3T3-L1 adipocytes; format: cell-based, mouse; settings: 20 μg/ml or greater, 2 hours, FIG. 6
# Protocol: as §1, with “Following the incubation, 400 μl of benzethonium hydrochloride was added to the center well to collect released ^14CO2. Immediately, the reaction was stopped by adding 500 μl of 7% perchloric acid to the cells.” left out, “Blanks were prepared by adding 500 μl of 7% perchloric acid to the cells prior to the incubation with the assay buffer for 2 h.” left out
# as §3, §4
# [5] = Respiratory exchange ratio by indirect calorimetry (Oxymax) in mice; format: in vivo
# Protocol: In keeping with the C75 effect on both human and murine CPT-1 and fatty acid metabolism, C75 induces a profound and rapid stimulation of fatty acid oxidation in vivo. Mice were maintained in the Oxymax calorimeter (Oxymax Equal Flow System®, Columbus Instruments, Columbus, Ohio). Oxygen consumption and CO2 production was measured in up to four mice simultaneously using the indirect calorimeter. Measurements were recorded every 15 minutes over the entire course of the experiments. The respiratory exchange ratio (RER) was calculated by the Oxymax® software version 5.9. RER is defined as the ratio of CO2 to O2 at any given time irrespective if equilibrium was reached. Mice were maintained on water and mouse chow ad libitum. In the control mice (FIG. 8A), note the diurnal variation of RER indicating feeding and resting cycles of the animals. An RER of 1 is consistent with oxidation of carbohydrates while 0.7 indicates oxidation of fatty acids. […] C75 treatment at 30 mg/kg disrupts the diurnal pattern of the control mice, showing a rapid drop in RER to complete oxidation of fatty acids within about 2 hours. […] Importantly, the rate of decline of RER was similar to that observed for animals deprived of food (data not shown).
# [6] = tested on: MCF-7 cells; settings: cited from earlier work
# [7] = tested on: MCF-7 cells; assay: Total cellular ATP (luciferase assay) in MCF-7 cells; format: cell-based, human; settings: MCF-7, 10 μg/ml and 20 μg/ml, 2 hours, FIG. 5
# Protocol: 1×10^5 MCF-7 cells were plated in 96 well plates. Cells were treated with C75 or vehicle. After 2 hours, ATP was measured using a luciferase assay using the ATP Bioluminescence Kit CLS II (Roche) following the manufacturer's protocol. Plates were read by a Perkin Elmer Wallac Victor^2 1420 luminometer. […] Similar results were obtained after 1 hr incubation with C75. Thus, cellular energy production increased as a result of C75 increasing fatty acid oxidation.
structure (smiles),measurement,setting,value
C=C1C(=O)OC(CCCCCCCC)C1C(=O)O (stereo not shown) [Compound C75],Fatty Acid Oxidation (% Control),[1]; 10 μg/mL,400 % Control
same,effect on fatty acid oxidation,"[1]; MCF-7, doses from 5-20 μg/ml",increased fatty acid oxidation
same,increase in fatty acid oxidation compared to the control,"[1]; MCF-7, treated 2 hours before measurement, FIG. 1",156%
same,increase in CPT-1 activity above control,[2],377%
same,FAS Inhibition (IC50),[3],55 µg/mL
same,fatty acid oxidation,[4],significantly increased
same,time for RER drop to oxidation of fatty acids,[5]; 30 mg/kg,≤ 2 h
same,respiratory exchange ratio (RER) after treatment,[5]; FIG. 8B,~0.7
same,increase in malonyl-CoA,[6],> 5 fold
same,total cellular ATP,[7],significant increase
